Consider 22 molecules from patent US8022225B2, “Triazole derivative” (Taisho Pharmaceutical Co., Ltd, priority 2004, dated 2011).

By inhibition is commonly meant the change of the read-out against control, counted positive when it falls.

Assay [1] concerns the target T1, human Edg-1(S1P1) (Homo sapiens, UniProt P21453).
T1 construct: expressed in transfected cells; host or cells: HEK-293
Nature of the assay: Cell system binding test: inhibition of [3H]-S1P binding to Edg-1(S1P1) gene transferred HEK-293 cells. Conditions: [3H]-S1P 10 nM.

The target of assay [2] is T1, human Edg-1(S1P1). The assay can be described thus: Membrane system binding test: inhibition of [33P]-S1P binding to the membrane fraction of Edg-1(S1P1) gene transferred HEK-293 cells. The note with it: [33P]-S1P 0.1 nM. A digest of the protocol:
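Compound tested at 10^−5 M final (0.1% DMSO) for blocking 0.1 nM [^33P]-S1P binding to S1P1-expressing HEK-293 membranes, 30 °C, 1 h. Radioactivity retained on filters was counted, and percent inhibition derived relative to vehicle binding, correcting for the background of non-transfected HEK-293 membranes.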

[3] abbreviates: 10 μM compound, read-out: Cell system binding test % inhibition (10 μM).
[4] abbreviates: 10 μM compound, membrane fraction of Edg-1(S1P1) gene transferred HEK-293 cells, read-out: Membrane system binding test % inhibition (10 μM).
Setting [5] is: test compound 10^-5 M, 1 hour, read-out: Edg-1(S1P1) binding inhibition rate (cell system binding test).
[6] abbreviates: test compound 10^-5 M, 1 hour at 30° C., HEK-293 membrane fraction, read-out: Edg-1(S1P1) binding inhibition rate (membrane system binding test).
[7] abbreviates: 10 μM compound, membrane fraction of Edg-1(S1P1) gene transferred HEK-293 cells.

T1 sequence (P21453 whole entry): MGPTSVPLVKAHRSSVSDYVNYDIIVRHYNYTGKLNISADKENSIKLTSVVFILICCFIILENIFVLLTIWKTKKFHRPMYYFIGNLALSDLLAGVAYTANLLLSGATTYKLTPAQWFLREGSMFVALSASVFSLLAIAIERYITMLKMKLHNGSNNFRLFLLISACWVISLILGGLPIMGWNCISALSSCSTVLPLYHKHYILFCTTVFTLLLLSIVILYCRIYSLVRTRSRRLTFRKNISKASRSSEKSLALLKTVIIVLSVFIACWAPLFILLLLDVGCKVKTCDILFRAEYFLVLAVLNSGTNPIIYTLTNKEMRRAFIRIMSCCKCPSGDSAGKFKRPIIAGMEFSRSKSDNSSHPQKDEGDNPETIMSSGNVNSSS

As to `CCn1c(OC)nnc1[C@@H](C)NS(=O)(=O)/C=C/c1ccccc1` [Compound 241], the inhibition at 10 µM is 102% on human Edg-1(S1P1) [1] (setting [3]) and 80.5% at human Edg-1(S1P1) [2] (setting [4]).
In the case of `CCn1c(SC/C=C\COCc2ccccc2)nnc1[C@@H](C)NS(=O)(=O)c1ccc(Cl)cc1` [Compound 50], the inhibition at 10 µM at human Edg-1(S1P1) [1] (setting [3]) came out at 95.3%; on human Edg-1(S1P1) [2] (setting [4]), 96.2%.
Turning to `CCn1c(OC)nnc1[C@@H](C)NS(=O)(=O)c1cnc(Cl)c(Br)c1` [Compound 251], the values for the inhibition at 10 µM on human Edg-1(S1P1) [1] (setting [3]) and on human Edg-1(S1P1) [2] (setting [4]) were 102% and 106%, respectively.
Consider `CCn1c(OCC(F)(F)F)nnc1[C@@H](C)NS(=O)(=O)c1ccc(C)c(Cl)c1` [Compound 486], for which the inhibition at 10 µM on human Edg-1(S1P1) [1] (setting [5]) is 99.5%; on human Edg-1(S1P1) [2] (setting [6]), 93.8%.
Turning to `CCn1c(OC)nnc1[C@@H](C)NS(=O)(=O)c1cc(F)c(F)cc1F` [Compound 302], the figures for the inhibition at 10 µM on human Edg-1(S1P1) [1] (setting [3]) and at human Edg-1(S1P1) [2] (setting [4]) were 98.7% and 57.7%, respectively.
The like results for `CCn1c(SCc2ccc(C(F)(F)F)cc2)nnc1C(C)NS(=O)(=O)c1ccc(Cl)cc1` (centres unmarked) [Compound 46] were, in that order, 90.4% and 99.5%.
For the molecule `CCn1c(OC)nnc1[C@@H](C)NS(=O)(=O)c1cccc(Cl)c1F` [Compound 322], the inhibition at 10 µM on human Edg-1(S1P1) [1] (setting [3]) is 95.9%; at human Edg-1(S1P1) [2] (setting [4]) it was 43.5%.
Take `CCn1c(OC)nnc1[C@H](C)NS(=O)(=O)c1ccccc1Br` [Compound 204]: the inhibition at 10 µM on human Edg-1(S1P1) [1] (setting [3]) came to 97.8%; at human Edg-1(S1P1) [2] (setting [4]) it was 45.4%.
The like results for `CCn1c(OC)nnc1[C@@H](C)NS(=O)(=O)c1cc(C)ccc1F` [Compound 320] were, in that order, 93.5% and 47.9%.
As for `C=CCSc1nnc([C@@H](CC)NS(=O)(=O)c2ccc(Cl)cc2)n1C` [Compound 106], the inhibition at 10 µM at human Edg-1(S1P1) [1] (setting [3]) came to 86.9%. Further, the “Membrane system binding test % inhibition (10 μM)” value at human Edg-1(S1P1) [2] (setting [7]) came out at 52.5%.
For `CCn1c(OCCCN(C)C)nnc1[C@@H](C)NS(=O)(=O)c1ccc(Cl)cc1` [Compound 188], the inhibition at 10 µM at human Edg-1(S1P1) [1] (setting [3]) was 82%; at human Edg-1(S1P1) [2] (setting [4]), 46.3%.
Regarding `CCn1c(SC(C(=O)OC)c2ccccc2)nnc1[C@@H](C)NS(=O)(=O)c1ccc(Cl)cc1` (some centres unmarked) [Compound 52], the inhibition at 10 µM on human Edg-1(S1P1) [1] (setting [3]) is 93.6%; at human Edg-1(S1P1) [2] (setting [4]) it was 89.1%.
As to `CCn1c(OC(C)C)nnc1[C@@H](C)NS(=O)(=O)c1ccc(Cl)cc1` [Compound 379], the values for the inhibition at 10 µM at human Edg-1(S1P1) [1] (setting [3]) and on human Edg-1(S1P1) [2] (setting [4]) were 99.7% and 93.4%, respectively.
Take `CCn1c(OCCCN2CCOCC2)nnc1[C@@H](C)NS(=O)(=O)c1ccc(Cl)cc1` [Compound 394]: the inhibition at 10 µM at human Edg-1(S1P1) [1] (setting [3]) came out at 82.9%; at human Edg-1(S1P1) [2] (setting [4]) it was 76.9%.
As for `CCCCSc1nnc([C@@H](C)NS(=O)(=O)c2ccc(Cl)cc2)n1CC` [Compound 29], the inhibition at 10 µM on human Edg-1(S1P1) [1] (setting [3]) is 93%; at human Edg-1(S1P1) [2] (setting [4]), 95.9%.
With `CCn1c(SC2CCc3ccccc32)nnc1[C@@H](C)NS(=O)(=O)c1ccc(Cl)cc1` (some centres unmarked) [Compound 51], the inhibition at 10 µM was 91.2% at human Edg-1(S1P1) [1] (setting [3]) and 93% at human Edg-1(S1P1) [2] (setting [4]).
For `CCn1c(OCC(F)(F)F)nnc1[C@@H](C)NS(=O)(=O)c1ccc(C)c(C)c1` [Compound 493], the inhibition at 10 µM on human Edg-1(S1P1) [1] (setting [5]) was determined as 105%; on human Edg-1(S1P1) [2] (setting [6]), 88.3%.
For the molecule `CCn1c(OC)nnc1[C@@H](C)NS(=O)(=O)c1ccc(Br)c(Br)c1` [Compound 448], the “Cell system binding test % inhibition (10 μM)” value on human Edg-1(S1P1) [1] (10 μM compound) is listed as 89.7%. Besides, the “Membrane system binding test % inhibition (10 μM)” value on human Edg-1(S1P1) [2] (setting [7]) turned out to be 99.6%.
On to `CCn1c(OC)nnc1[C@@H](C)NS(=O)(=O)CCCCl` [Compound 210], for which the inhibition at 10 µM at human Edg-1(S1P1) [1] (setting [3]) worked out at 91.8%; on human Edg-1(S1P1) [2] (setting [4]), 46.6%.
In the case of `CCn1c(OC)nnc1[C@@H](C)NS(=O)(=O)c1cccc(Cl)c1C` [Compound 267], the inhibition at 10 µM turned out to be 99.9% at human Edg-1(S1P1) [1] (setting [3]) and 89.4% on human Edg-1(S1P1) [2] (setting [4]).
For `COc1nnc([C@@H](C)NS(=O)(=O)c2ccc(Cl)cc2)n1C(C)C` [Compound 542], the inhibition at 10 µM worked out at 99.9% on human Edg-1(S1P1) [1] (setting [5]) and 92.3% at human Edg-1(S1P1) [2] (setting [6]).
As for `CCOc1nnc([C@@H](C)NS(=O)(=O)c2cccc(Br)c2)n1CC` [Compound 408], the inhibition at 10 µM at human Edg-1(S1P1) [1] (setting [3]) was 88.5%; on human Edg-1(S1P1) [2] (setting [4]), 84.9%.
